Experimental data published in patent US11713341B1, “Antimicrobial NCR13 variant peptides” (Vestaron Corporation, priority 2022, dated 2023).
Where a SMILES comes first, the peptide text is derived from it.

Test system: Botrytis cinerea
Experiment: Antimicrobial bioassay (Botrytis cinerea): growth inhibition by OD600
Type: cell-based
Conditions: for anti-Botrytis activities relative to NCR13a: Botrytis cinerea growth, comparison with NCR13a; for Activity ratio to NCR13a: anti-Botrytis cinerea activity (IC50) relative to comparator NCR13a
Procedure: The antimicrobial effect of the NCR13 variant peptides (NVPs) of the present disclosure were evaluated against the fungal species, Botrytis cinerea. […] The growth of Botrytis cinerea was then assessed via OD600 nm after incubation with a given NVP at room temperature after 96 hours. The IC50 of each peptide analyzed is shown in ppm.
The antimicrobial effect of the NCR13 variant peptides (NVPs) of the present disclosure were evaluated against the fungal species, Botrytis cinerea. […] The growth of Botrytis cinerea was then assessed via OD600 nm after incubation with a given NVP at room temperature after 96 hours.
The NVPs assessed were as follows: NVPM3 (+L) (SEQ ID NO: 5); NVPM5 (+M) (SEQ ID NO: 7); NVPM6 (+F) (SEQ ID NO: 8); NVPM7 (+W) (SEQ ID NO: 9); NVPM9 (+S) (SEQ ID NO: 11); NVPM11 (+Y) (SEQ ID NO: 13); NVPM14 (+D) (SEQ ID NO: 16); and NVPM15 (+E) (SEQ ID NO: 17).
NVPs having an amino acid sequence of SEQ ID NOs: 5, 7, 8, 9, 11, 13, 16, and 17 were generated as described above in Example 1. The peptide, NCR13a, having an amino acid sequence of: […] (SEQ ID NO: 2) was selected as a comparator peptide, with which the antifungal activity of the foregoing NVPs was compared.
The fungal species was Botrytis cinerea was cultured in potato dextrose agar plates. Fungal spores were collected from the agar plates and suspended into de-ionized water, followed by enumeration in a Petroff-Hausser counting chamber (VWR).
The 96-well plates were incubated at room temperature for 96 hours without shaking. The OD600 of the culture plate was determined using SpectraMax plate reader. Relative OD600 was determined by normalizing cell growth to control wells containing neither NVPs nor NCR13a. The OD600 was used to determine IC50.

Row | SMILES | anti-Botrytis activities relative to NCR13a | Activity ratio to NCR13a
1 | CC[C@H](C)[C@H](NC(=O)[C@H](CS)NC(=O)[C@H](CCCCN)NC(=O)[C@@H]1CCCN1C(=O)[C@@H](NC(=O)[C@H](CCCCN)NC(=O)[C@@H]1CCCN1C(=O)[C@H](CCCCN)NC(=O)[C@H](CCCNC(=N)N)NC(=O)[C@H](CS)NC(=O)[C@H](C)NC(=O)[C@H](Cc1ccccc1)NC(=O)[C@H](CCCCN)NC(=O)[C@H](CCCCN)NC(=O)[C@H](CS)NC(=O)[C@H](CC(=O)O)NC(=O)[C@H](CCCCN)NC(=O)[C@H](CC(=O)O)NC(=O)[C@H](CO)NC(=O)[C@H](CCC(N)=O)NC(=O)[C@H](CS)NC(=O)[C@@H]1CCCN1C(=O)[C@H](CCCCN)NC(=O)[C@@H](NC(=O)[C@@H](N)Cc1ccc(O)cc1)[C@@H](C)O)C(C)C)C(=O)N[C@@H](CC(N)=O)C(=O)NCC(=O)N[C@@H](Cc1ccccc1)C(=O)N[C@@H](CS)C(=O)N[C@@H](CCCCN)C(=O)N[C@@H](CS)C(=O)N[C@H](C(=O)N[C@@H](CCCNC(=N)N)C(=O)O)C(C)C [NVPM11] (H-YTKPCQSDKDCKKFACRKPKVPKCINGFCKCVR-OH; N-terminus and C-terminus assumed) | improved anti-Botrytis activities relative to NCR13a | 1.77
2 | CC[C@H](C)[C@H](NC(=O)[C@H](CS)NC(=O)[C@H](CCCCN)NC(=O)[C@@H]1CCCN1C(=O)[C@@H](NC(=O)[C@H](CCCCN)NC(=O)[C@@H]1CCCN1C(=O)[C@H](CCCCN)NC(=O)[C@H](CCCNC(=N)N)NC(=O)[C@H](CS)NC(=O)[C@H](C)NC(=O)[C@H](Cc1ccccc1)NC(=O)[C@H](CCCCN)NC(=O)[C@H](CCCCN)NC(=O)[C@H](CS)NC(=O)[C@H](CC(=O)O)NC(=O)[C@H](CCCCN)NC(=O)[C@H](CC(=O)O)NC(=O)[C@H](CO)NC(=O)[C@H](CCC(N)=O)NC(=O)[C@H](CS)NC(=O)[C@@H]1CCCN1C(=O)[C@H](CCCCN)NC(=O)[C@@H](NC(=O)[C@@H](N)CC(=O)O)[C@@H](C)O)C(C)C)C(=O)N[C@@H](CC(N)=O)C(=O)NCC(=O)N[C@@H](Cc1ccccc1)C(=O)N[C@@H](CS)C(=O)N[C@@H](CCCCN)C(=O)N[C@@H](CS)C(=O)N[C@H](C(=O)N[C@@H](CCCNC(=N)N)C(=O)O)C(C)C [NVPM14] (H-DTKPCQSDKDCKKFACRKPKVPKCINGFCKCVR-OH; N-terminus and C-terminus assumed) | improved anti-Botrytis activities relative to NCR13a | 1.61
3 | CC[C@H](C)[C@H](NC(=O)[C@H](CS)NC(=O)[C@H](CCCCN)NC(=O)[C@@H]1CCCN1C(=O)[C@@H](NC(=O)[C@H](CCCCN)NC(=O)[C@@H]1CCCN1C(=O)[C@H](CCCCN)NC(=O)[C@H](CCCNC(=N)N)NC(=O)[C@H](CS)NC(=O)[C@H](C)NC(=O)[C@H](Cc1ccccc1)NC(=O)[C@H](CCCCN)NC(=O)[C@H](CCCCN)NC(=O)[C@H](CS)NC(=O)[C@H](CC(=O)O)NC(=O)[C@H](CCCCN)NC(=O)[C@H](CC(=O)O)NC(=O)[C@H](CO)NC(=O)[C@H](CCC(N)=O)NC(=O)[C@H](CS)NC(=O)[C@@H]1CCCN1C(=O)[C@H](CCCCN)NC(=O)[C@@H](NC(=O)[C@@H](N)CCC(=O)O)[C@@H](C)O)C(C)C)C(=O)N[C@@H](CC(N)=O)C(=O)NCC(=O)N[C@@H](Cc1ccccc1)C(=O)N[C@@H](CS)C(=O)N[C@@H](CCCCN)C(=O)N[C@@H](CS)C(=O)N[C@H](C(=O)N[C@@H](CCCNC(=N)N)C(=O)O)C(C)C [NVPM15] (H-ETKPCQSDKDCKKFACRKPKVPKCINGFCKCVR-OH; N-terminus and C-terminus assumed) | improved anti-Botrytis activities relative to NCR13a | 1.43
